Test results reported in publication PMC8549260, “Crude extract and isolated bioactive compounds from Notholirion thomsonianum (Royale) Stapf as multitargets antidiabetic agents: in-vitro and molecular docking approaches” (BMC Complementary Medicine and Therapies, 2021).
Where two headings read alike, the source gives them in different places. Each block holds one compound with its values, some of them ahead of it.

Tests used:
[1] = DPPH free radicals scavenging assay; conditions: for DPPH Assay % Scavenging (mean ± SEM) / DPPH Percent Inhibition (mean ± SEM): n = 3
Experimental: Plant samples solutions were prepared ranging from 125 to 1000 μg/ mL and were added to 0.004% methanolic solution of DPPH. Subsequent to 30 min incubation, absorbances were measured at 517 nm.
In free radicals’ assays including DPPH, ABTS and H2O2, the IC50s were calculated using same method.

[2] = H2O2 free radicals scavenging assay; conditions: n = 3
Experimental: This method was used to determine the antioxidant potentials of crude extracts from N. thomsonianum. A solution of H2O2 (2 mM) was prepared in buffer solution of phosphate (50 mM, pH 7.40). In a test tube, 0.10 mL of crude extract was measured, and the volume was diluted to 0.40 mL by adding the phosphate buffer. Then 0.60 mL solution of H2O2 was added to it and was mixed properly. The absorbance of the crude sample and standard were recorded on 230 nm. The same procedure was repeated for all the crude samples.

[3] = ABTS free radicals scavenging assay; conditions: for ABTS Assay % Scavenging (mean ± SEM): n = 3
Experimental: Plant crude samples were also evaluated against ABTS free radicals using standard protocol. In this protocols, 7 mM solution of ABTS and 2.45 mM of potassium per sulfate were mixed and kept in dark at laboratory temperature for around 16 h till the color become dark. Solution of 0.01 M of phosphate buffer having pH 7.40 was mixed with it and absorbance was adjusted at 0.70 at 734 nm. Afterwards, solution of the plant extracts (300 μl) was added to ABTS solution (3 mL) and absorbance was recorded at 734 nm. Mixed the solution for 1 min and reduction in absorbance was recorded. The mixing and reduction were repeated for 6 min. The experiments were performed three times. The percent inhibitions and subsequent IC50 values of samples and standard ascorbic acid were calculated as per the standard procedure.

PTP1B = molecular target: T1, PTP1B (Homo sapiens, UniProt P18031); experiment: Protein tyrosine phosphatase 1B inhibition; type: biochemical
T1 sequence (P18031 1-435): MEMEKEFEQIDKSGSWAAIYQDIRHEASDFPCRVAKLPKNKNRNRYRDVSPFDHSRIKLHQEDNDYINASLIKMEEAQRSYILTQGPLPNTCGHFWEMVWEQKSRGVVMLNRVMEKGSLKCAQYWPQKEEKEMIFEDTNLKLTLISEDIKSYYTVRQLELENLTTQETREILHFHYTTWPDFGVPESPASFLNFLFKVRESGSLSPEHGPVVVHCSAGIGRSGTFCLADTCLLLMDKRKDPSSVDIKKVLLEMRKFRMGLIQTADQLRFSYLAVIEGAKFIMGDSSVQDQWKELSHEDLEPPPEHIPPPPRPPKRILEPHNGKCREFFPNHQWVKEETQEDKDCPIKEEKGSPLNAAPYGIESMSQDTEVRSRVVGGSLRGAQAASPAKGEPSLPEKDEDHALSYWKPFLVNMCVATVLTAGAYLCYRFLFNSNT
Experimental: The solutions were then incubated for 40 min at 27 °C and absorbances were recorded at 405 nm using microplate reader. The experiments were repeated three times and percent inhibitions followed by IC50 values were recorded accordingly.

α-amylase = molecular target: T2, α-amylase (Homo sapiens, UniProt P04746); experiment: In-vitro α-amylase inhibition; type: biochemical; conditions: for IC50: Table 3, isolated compounds series
T2 sequence (P04746 16-511): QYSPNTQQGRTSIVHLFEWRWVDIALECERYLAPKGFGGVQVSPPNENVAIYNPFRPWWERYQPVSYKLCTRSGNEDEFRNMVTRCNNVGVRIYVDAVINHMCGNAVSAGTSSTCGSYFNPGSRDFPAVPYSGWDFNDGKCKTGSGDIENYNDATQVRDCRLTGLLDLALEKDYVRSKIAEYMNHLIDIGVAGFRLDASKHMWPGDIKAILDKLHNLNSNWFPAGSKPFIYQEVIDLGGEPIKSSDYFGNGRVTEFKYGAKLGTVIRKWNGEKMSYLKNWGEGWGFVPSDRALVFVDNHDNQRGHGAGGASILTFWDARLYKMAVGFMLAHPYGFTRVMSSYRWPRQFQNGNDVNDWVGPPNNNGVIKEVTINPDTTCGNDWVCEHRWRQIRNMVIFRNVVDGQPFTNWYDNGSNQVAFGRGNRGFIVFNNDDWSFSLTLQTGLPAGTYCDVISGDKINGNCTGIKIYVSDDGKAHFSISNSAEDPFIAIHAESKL
Experimental: The amylase solution was prepared in phosphate buffer followed by addition of different concentrations of plant extracts and isolated compounds. The solutions of test samples in enzyme solution were allowed to react. The solutions were incubated for a specific temperature and were added starch solution. Afterwards, a solution of dinitrosalicylic acid was added to both of the groups, i.e. sample and control solution groups. The solutions were then allowed to heat up in boiling water for a few min. […] The experiments were performed in triplicates and percent inhibitions were calculated as per the reported formula. […]

Yeast α-Glucosidase = Yeast α-Glucosidase (Saccharomyces cerevisiae, UniProt P53341); experiment: biochemical; conditions: for IC50: α-Glucosidase IC50, Table 3, isolated compounds series
Sequence of Yeast α-Glucosidase (P53341 whole entry): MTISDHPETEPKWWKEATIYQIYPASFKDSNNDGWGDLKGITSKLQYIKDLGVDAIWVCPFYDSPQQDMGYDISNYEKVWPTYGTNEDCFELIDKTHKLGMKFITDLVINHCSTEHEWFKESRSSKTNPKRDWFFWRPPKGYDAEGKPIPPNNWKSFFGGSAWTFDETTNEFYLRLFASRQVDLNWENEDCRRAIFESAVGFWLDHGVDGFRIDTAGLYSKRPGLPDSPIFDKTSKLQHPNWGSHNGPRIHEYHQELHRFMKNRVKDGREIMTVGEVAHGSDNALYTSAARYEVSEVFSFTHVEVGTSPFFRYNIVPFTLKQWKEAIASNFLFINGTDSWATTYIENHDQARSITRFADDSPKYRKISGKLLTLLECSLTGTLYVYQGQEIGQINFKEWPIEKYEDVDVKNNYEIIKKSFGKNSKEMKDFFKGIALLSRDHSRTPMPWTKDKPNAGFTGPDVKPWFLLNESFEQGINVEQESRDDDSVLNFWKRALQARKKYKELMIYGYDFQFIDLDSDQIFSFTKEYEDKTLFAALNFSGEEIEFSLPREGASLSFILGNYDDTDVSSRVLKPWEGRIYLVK
Experimental: In 0.10 M of phosphate buffer having pH of 6.90, the α-glucosidase enzyme solution was prepared (0.50 U/ mL). […] The same solution without the enzyme was used as a blank. The absorbances were recorded at 405 nm. All the experiments were repeated in triplicate. The percent inhibitions and subsequent IC50 (in μg/mL and also in μM) were calculated accordingly. […]

[4] = read-out: PTP1B Percent Inhibition (mean ± SEM)
[5] = read-out: α-Amylase Percent Inhibition (mean ± SEM)
[6] = read-out: α-Glucosidase Percent Inhibition (mean ± SEM)

DPPH Assay IC50 ([1]; Table 2, crude extracts series): < 0.1 µg/mL
ABTS Assay IC50 [3]: < 0.1 µg/mL
Compound: O=C1O[C@H]([C@@H](O)CO)C(O)=C1O [AA, Ascorbic acid]
DPPH Assay % Scavenging (mean ± SEM) ([1]; Table 2, 125 μg/mL): 76.54 ± 0.54%
DPPH Assay % Scavenging (mean ± SEM) ([1]; Table 2, 250 μg/mL): 81.33 ± 0.88%
DPPH Assay % Scavenging (mean ± SEM) ([1]; Table 2, 500 μg/mL): 87.84 ± 0.26%
DPPH Assay % Scavenging (mean ± SEM) ([1]; Table 2, 1000 μg/mL): 92.55 ± 0.35%
DPPH Percent Inhibition (mean ± SEM) ([1]; Table 4, 125 μg/mL): 85.20 ± 0.49%
DPPH Percent Inhibition (mean ± SEM) ([1]; Table 4, 250 μg/mL): 88.47 ± 0.71%
DPPH Percent Inhibition (mean ± SEM) ([1]; Table 4, 500 μg/mL): 91.75 ± 0.42%
H2O2 Assay % Scavenging (mean ± SEM) ([2]; 125 μg/mL): 68.00 ± 0.57%
H2O2 Assay % Scavenging (mean ± SEM) ([2]; 250 μg/mL): 71.50 ± 0.60%
H2O2 Assay % Scavenging (mean ± SEM) ([2]; 500 μg/mL): 74.66 ± 0.49%
H2O2 Assay % Scavenging (mean ± SEM) ([2]; 1000 μg/mL): 83.33 ± 0.88%
ABTS Assay % Scavenging (mean ± SEM) ([3]; 125 μg/mL): 78.46 ± 0.58%
ABTS Assay % Scavenging (mean ± SEM) ([3]; 250 μg/mL): 80.43 ± 0.55%
ABTS Assay % Scavenging (mean ± SEM) ([3]; 500 μg/mL): 86.53 ± 0.60%
ABTS Assay % Scavenging (mean ± SEM) ([3]; 1000 μg/mL): 87.60 ± 0.40%

inhibition at 125 µg/mL (PTP1B; 125 μg/mL, n = 3, read-out: PTP1B Percent Inhibition (mean ± SEM) (converted)): 91.5%
inhibition at 250 µg/mL (PTP1B; 250 μg/mL, n = 3, read-out: PTP1B Percent Inhibition (mean ± SEM) (converted)): 93.6%
inhibition at 500 µg/mL (PTP1B; 500 μg/mL, n = 3, read-out: PTP1B Percent Inhibition (mean ± SEM)): 98.7 ± 1.32%
Compound: C[C@H]1[C@H](C)CC[C@]2(C(=O)O)CC[C@]3(C)C(=CC[C@@H]4[C@@]5(C)CC[C@H](O)C(C)(C)[C@@H]5CC[C@]43C)[C@H]12 [Ursolic acid, reference compound]

Compound: CCCC/C=C/C=O [Nt02]
DPPH Percent Inhibition (mean ± SEM) ([1]; Table 4, 125 μg/mL): 74.78 ± 0.44%
DPPH Percent Inhibition (mean ± SEM) ([1]; Table 4, 250 μg/mL): 79.32 ± 0.40%
DPPH Percent Inhibition (mean ± SEM) ([1]; Table 4, 500 μg/mL): 86.60 ± 0.00%
IC50 (PTP1B): < 279 µM
IC50 (PTP1B; based on molecular weight): < 279 µM
inhibition at 125 µg/mL (PTP1B; [4]): 85.8%
inhibition at 250 µg/mL (PTP1B; [4]): 90.9%
inhibition at 500 µg/mL (PTP1B; [4]): 93.03 ± 0.48%
IC50 (α-amylase): < 279 µM
IC50 (α-amylase; based on molecular weight): < 279 µM
inhibition at 125 µg/mL (α-amylase; [5]): 78.4%
inhibition at 250 µg/mL (α-amylase; [5]): 85.3%
inhibition at 500 µg/mL (α-amylase; [5]): 91.36 ± 0.49%
inhibition at 125 µg/mL (Yeast α-Glucosidase; [6]): 66.9%
inhibition at 250 µg/mL (Yeast α-Glucosidase; [6]): 71.1%
inhibition at 500 µg/mL (Yeast α-Glucosidase; [6]): 76.8 ± 2.24%
IC50 (Yeast α-Glucosidase): < 279 µM
IC50 (Yeast α-Glucosidase; based on molecular weight): < 279 µM
